Measurements: US10000534B2, “Peptide having osteoblast proliferation activity and periodontal ligament fibroblast proliferation activity, and use of same” (CAREGEN CO., LTD., priority 2014, dated 2018)
Ends that are not written are not given here.

Key:
[1] = tested on: periodontal ligament fibroblasts; experiment: RT-PCR of COL1A1 and DSPP mRNA in periodontal ligament fibroblasts; assay type: cell-based, human; conditions: peptide 1 and 10 ug/ml, 72 hours, FIGS. 8a and 8b
Description: In order to investigate the periodontal ligament fibroblast activity promoting effects by the peptides of SEQ ID NO: 1 and SEQ ID NO: 2, the mRNA expression of related genes was analyzed using RT-PCR. The periodontal ligament fibroblasts were placed in a 24-well plate to 1.5×10^4 cells, and then cultured for 24 hours under conditions of 37° C. and 5% CO2. After 24 hours, the exchange with the medium not containing serum was conducted, followed by culture for 24 hours. Thereafter, the resulting product was treated with the peptides at concentrations of 1 and 10 ug/ml and BMP-2 and IGF-1 used as positive controls at a concentration of 0.2 ug/ml, followed by culture for 72 hours. After the completion of the culture, the washing was conducted with PBS, and then RNA was isolated using Easy blue (Intron). cDNA was synthesized using 1 ug of RNA and RT premixture (Intron), and PCR was conducted using PCR premixture (Bioneer), and then the resulting product was loaded on agarose gel to investigate the mRNA level of each marker.

[2] = tested on: C2C12 cells; experiment: MTT assay of cell proliferation in C2C12 cells; assay type: cell-based; conditions: peptide 10 μg/ml, 72 hours, serum-free, FIGS. 1a and 1b
Description: In order to analyze the BMP2-like action of the sequence peptides synthesized in synthesis example 1, MTT assay was conducted using C2C12 cells, which are a myoblast cell line, to investigate the proliferation promoting effect.
The C2C12 cells were cultured in Dulbecco's modified Eagle's medium (DMEM, Gibco) supplemented with 10% fetal bovine serum (FBS, Sigma) using a 500 ml-flask for tissue culture. The cultured cell lines were carefully detached from the bottom of the culture container using a 1% trypsin solution, followed by centrifugation, thereby obtaining only cell precipitates. The cell precipitates were re-suspended in DMEM culture medium supplemented without FBS, and then added to a 96-well plate for tissue culture at 1×10^3 cells per each well, followed by culture under conditions of 37° C. and 5% CO2 for 24 hours. After 24 hours, the medium was changed with the same culture liquid completely excluding serum, and then the blank sample and each of the synthetic peptide were dissolved sterile in distilled water, and the mixture was cultured at a concentration of 10 μg/ml for 72 hours under the same conditions. The MTT sample was added to the culture-completed well, and after 4 hour, the formed formazan was dissolved in DMSO, and then the absorbance was measured at 560 nm to determine cell proliferation.

[3] = tested on: human periodontal ligament fibroblasts; experiment: Western blotting of p-PI3K and p-Akt in periodontal ligament fibroblasts; assay type: cell-based; conditions: peptide 10 ug/ml, 5-15 minutes, FIGS. 7a and 7b
Description: In order to investigate the human periodontal ligament fibroblast growth promoting effects by the peptides of SEQ ID NO: 1 and SEQ ID NO: 2, the phosphorylation degrees of related signaling molecules were analyzed using western blotting. The periodontal ligament fibroblasts were placed in a 6-well plate to 5×10^5 cells, and then cultured for 24 hours under conditions of 37° C. and 5% CO2. Thereafter, the resulting product was treated with the peptides at a concentration of 10 ug/ml and bFGF used as a positive control at a concentration of 0.2 ug/ml. Then, the cells were collected by culture times of 5-15 minutes, and the total proteins were isolated, and then western blotting was conducted with respect to p-PI3K and p-Akt.

[4] = tested on: MC3T3-E1 cells; experiment: Western blotting of pSmad1/5/8 in MC3T3-E1 cells; assay type: cell-based; conditions: MC3T3-E1, peptide 10 ug/ml, 15 and 30 minutes, FIGS. 4a and 4b
Description: In order to investigate whether pSmad1/5/8, which is a signal involved in the promotion of osteogenic differentiation, was activated by the present peptides, MC3T3-E1 cells were placed in a 6-well plate at 2×10^5 cells, and then cultured for 24 hours under the conditions of 37° C. and 5% CO2. After 24 hours, the medium was exchanged with a medium without serum, followed by culture for 24 hours. Then, the resulting product was treated with the respective peptides at 10 ug/ml, and BMP2 used at a positive control at 50 ng/ml. After 15 minutes and 30 minutes, the washing was conducted with PBS, and then a lysis buffer was added to obtain proteins through lysis, followed by western blotting.

[5] = tested on: MC3T3-E1 cells; experiment: Alkaline phosphatase (ALP) staining of MC3T3-E1 cells (osteoblast differentiation); assay type: cell-based; conditions: MC3T3-E1, peptide 10 ug/ml and 50 ug/ml, 13 days; FIGS. 2a and 2b
Description: In order to analyze the BMP2-like action of the sequence peptides synthesized in synthesis example 1, the osteoblast differentiation promoting effect was investigated through alkaline phosphatase (ALP) staining of MC3T3-E1 cells, which are a pre-osteoblast cell line. The MC3T3-E1 cells were placed in a 24-well plate to 3×10^4 cells, and then cultured for 24 hours under conditions of 37° C. and 5% CO2. After 24 hours, the alpha-MEM medium containing 10% FBS and 50 ug/ml ascorbic acid+100 mM b-glycerophosphate was treated with the synthetic peptides at concentrations of 10 ug/ml and 50 ug/ml, and then the culture was conducted for 13 days while the medium was exchanged every three days. The culture-completed plate well was washed two times with PBS, and then the cells were immobilized with an immobilization buffer, in which acetone, 37% formaldehyde, and citric acid solution were mixed, for 30 seconds. The following staining was carried out using the leukocyte alkaline phosphatase staining kit (SIGMA).
The cells were treated for 2 minutes with an FBB-alkaline solution and a sodium nitrite solution mixed at 1:1, and then treated with a buffer composed of distilled water and naphthol AS-BI alkaline solution, followed by color development in an incubator at 37° C. for 1 hour.

[6] = tested on: human periodontal ligament fibroblasts; experiment: SRB assay of human periodontal ligament fibroblast growth; assay type: cell-based; conditions: peptide 0.05-10 ug/ml, 72 hours, serum-free; FIGS. 6a and 6b
Description: In order to investigate the effects of the peptides of SEQ ID NO: 1 and SEQ ID NO: 2 on the periodontium, the human periodontal ligament fibroblast promoting effects were analyzed. The periodontal ligament fibroblasts were placed in a 48-well plate to 1×10^3 cells, and then cultured for 24 hours under conditions of 37° C. and 5% CO2. After 24 hours, the exchange with the medium not containing serum was conducted, followed by culture for 6 hours. Thereafter, the resulting product was treated with the peptides at concentrations of 0.05-10 ug/ml and BMP-2 and IGF-1 used as positive controls at a concentration of 0.2 ug/ml, followed by culture for 72 hours. After the completion of the culture, the culture supernatant was removed and the cells were immobilized using ethanol. After the cell immobilization was ended, the cells were washed three times with phosphate buffer saline (PBS). After the wash solution was removed, the cells were treated with colorimetric SRB solution, and sufficiently washed with 1% acetic acid. Then, the cells were observed using a microscope to observe the conditions of living cells. The absorbance for the solution decolorized with 20 mM tris was read at UV light of 560 nm, thereby measuring the survival conditions of cells.

[7] = tested on: MC3T3-E1 cells; experiment: RT-PCR of osteogenic differentiation-related genes (BSP, COL1A1) in MC3T3-E1 cells; assay type: cell-based; conditions: MC3T3-E1, peptide 10 ug/ml and 50 ug/ml, 2 days; FIGS. 3a and 3b
Description: In order to investigate the mRNA expression levels of osteogenic differentiation-related genes, bone sialoprotein (BSP) and collagen type I alpha 1 (COL1A1) by the sequence peptides synthesized in synthesis example 1, MC3T3-E1 cells were placed in a 6-well plate to 2×10^5 cells, and then cultured for 24 hours under conditions of 37° C. and 5% CO2. After 24 hours, the medium containing FBS 10% was treated with the respective peptides at 10 ug/ml and 50 ug/ml, and BMP2 used at a positive control at 100 ng/ml. After 2 days, the washing was conducted with PBS, and then RNA was isolated using Easy blue (Intron). cDNA was synthesized using 1 ug of RNA and RT premixture (Intron), and PCR was conducted using PCR premixture (Bioneer), and then the resulting product was loaded on agarose gel to investigate the mRNA expression degree of each gene.

[8] = tested on: Balb/c mouse; experiment: Collagen sponge transplant in Balb/c mouse, H&E staining of osteocytes permeation and differentiation; assay type: in vivo; conditions: collagen sponge with 100 ug peptide transplanted into the back, 2 weeks, FIG. 5
Description: A collagen sponge with a size of 0.5 mm×0.5 mm was wetted with 100 ug of the peptide of SEQ ID NO: 1, transplanted into the back of the Balb/c mouse, and then left for 2 weeks. Thereafter, the collagen sponge was extracted, and then made into a paraffin block, and then the degree of osteocytes permeation and differentiation in the collagen sponge were measured through H&E staining (FIG. 5).

FDMGAYKSSK [SEQ ID NO: 2] was tested, and the “mRNA expression level of alpha-1 type I collagen (COL1A1)” value [1] was “increases in the mRNA expression levels”, the “mRNA expression level of dentin sialophosphoprotein (DSPP)” value [1] was “increases in the mRNA expression levels” and the “growth of osteoblasts (cell proliferation, MTT, absorbance at 560 nm)” value [2] was “significantly promoted the growth of osteoblasts”. For the same sequence, the “phosphorylation level of Akt” value [3] was “increases in the phosphorylation levels”, the “phosphorylation level of PI3K” value [3] was “increases in the phosphorylation levels” and the “phosphorylation of Smad1/5/8” value [4] was “promotion of the phosphorylation of Smad1/5/8”. For the same sequence, the “ALP expression (ALP staining)” value [5] was “increase in the ALP expression”, the “periodontal ligament fibroblast cell growth (SRB, absorbance 560 nm)” value [6] was “cell growth increase in a dose-dependent manner” and the “mRNA expression levels of osteogenic differentiation genes (BSP, COL1A1)” value [7] was “increases in the mRNA expression levels”.

For RSLNLRDSQKS [SEQ ID NO: 1], the “mRNA expression level of alpha-1 type I collagen (COL1A1)” value [1] was “increases in the mRNA expression levels”, the “mRNA expression level of dentin sialophosphoprotein (DSPP)” value [1] was “increases in the mRNA expression levels” and the “growth of osteoblasts (cell proliferation, MTT, absorbance at 560 nm)” value [2] was “significantly promoted the growth of osteoblasts”. The “phosphorylation level of Akt” value [3] was “increases in the phosphorylation levels”, the “phosphorylation level of PI3K” value [3] was “increases in the phosphorylation levels” and the “phosphorylation of Smad1/5/8” value [4] was “promotion of the phosphorylation of Smad1/5/8”. For the same sequence, the “ALP expression (ALP staining)” value [5] was “increase in the ALP expression”, the “periodontal ligament fibroblast cell growth (SRB, absorbance 560 nm)” value [6] was “cell growth increase in a dose-dependent manner” and the “bone formation promoting effect (osteocytes permeation, proliferation and differentiation in collagen sponge, H&E)” value [8] was “bone formation promoting effect”. The “mRNA expression levels of osteogenic differentiation genes (BSP, COL1A1)” value [7] was “increases in the mRNA expression levels”.
